Data from patent US20070212366A1, “Use Of Mrp4-Inhibitors For The Treatment And/Or Prophylaxis Of Cardiovascular Diseases” (ERNST-MORITZ-ARNDT-UNIVERSITAT GREIFSWALD, priority 2003, published 2007).

Key:
[1] = biological target: T1, MRP4 (Homo sapiens, UniProt O15439); assay: Inhibition of vanadate-sensitive [3H]ADP transport in dense platelet granules (vesicle rapid filtration); assay type: biochemical; settings: for [^3H]ADP transport (% of control): dense platelet vesicles, [3H]ADP 1 μmol/l, 0.4 mmol/l ATP ± 1 mmol/l orthovanadate, 2 min, mean ± SD of 3; for vanadate-sensitive ADP accumulation in the dense granular fraction of the sucrose gradient: result in words, refers to Table 1
T1 construct: Dense platelet vesicles (100 μg of protein) were incubated with [3H]ADP; from tissue; host or cells: platelets (crude membrane vesicles; dense granule fraction of a sucrose gradient)
T1 sequence (O15439 1-1325): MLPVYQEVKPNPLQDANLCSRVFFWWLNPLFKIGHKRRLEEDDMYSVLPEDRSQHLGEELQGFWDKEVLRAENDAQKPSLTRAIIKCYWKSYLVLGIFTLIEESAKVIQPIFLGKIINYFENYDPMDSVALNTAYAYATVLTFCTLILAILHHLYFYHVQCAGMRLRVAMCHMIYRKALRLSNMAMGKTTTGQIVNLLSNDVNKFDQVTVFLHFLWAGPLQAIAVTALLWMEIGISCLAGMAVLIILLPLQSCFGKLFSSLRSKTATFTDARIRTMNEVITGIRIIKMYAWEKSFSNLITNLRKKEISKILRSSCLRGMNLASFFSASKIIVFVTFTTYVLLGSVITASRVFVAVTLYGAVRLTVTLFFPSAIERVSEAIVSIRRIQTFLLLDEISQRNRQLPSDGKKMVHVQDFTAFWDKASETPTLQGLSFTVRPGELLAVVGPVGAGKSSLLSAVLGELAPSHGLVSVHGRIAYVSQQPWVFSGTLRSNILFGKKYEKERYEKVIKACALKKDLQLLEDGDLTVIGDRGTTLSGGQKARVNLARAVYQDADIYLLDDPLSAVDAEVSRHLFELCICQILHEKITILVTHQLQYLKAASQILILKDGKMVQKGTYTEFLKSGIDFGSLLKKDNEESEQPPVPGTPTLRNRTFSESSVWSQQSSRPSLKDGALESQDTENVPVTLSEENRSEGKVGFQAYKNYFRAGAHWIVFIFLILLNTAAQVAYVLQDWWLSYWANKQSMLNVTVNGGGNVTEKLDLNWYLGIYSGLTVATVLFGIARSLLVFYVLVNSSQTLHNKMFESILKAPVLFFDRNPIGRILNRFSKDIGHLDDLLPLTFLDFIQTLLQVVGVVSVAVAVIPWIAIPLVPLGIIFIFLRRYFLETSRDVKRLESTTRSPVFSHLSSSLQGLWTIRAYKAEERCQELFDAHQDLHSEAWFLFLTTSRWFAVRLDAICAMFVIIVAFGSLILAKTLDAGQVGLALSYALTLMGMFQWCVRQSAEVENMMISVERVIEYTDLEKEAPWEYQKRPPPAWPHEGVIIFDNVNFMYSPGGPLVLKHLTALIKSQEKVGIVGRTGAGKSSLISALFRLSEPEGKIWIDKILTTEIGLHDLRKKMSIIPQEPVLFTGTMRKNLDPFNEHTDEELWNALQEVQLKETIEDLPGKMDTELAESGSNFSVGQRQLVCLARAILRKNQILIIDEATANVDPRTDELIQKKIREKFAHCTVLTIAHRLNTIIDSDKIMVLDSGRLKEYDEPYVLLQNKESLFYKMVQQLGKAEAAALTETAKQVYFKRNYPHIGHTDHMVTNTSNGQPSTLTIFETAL
Text: In order to determine whether the observed difference in the [^3H]ADP uptake by the vesicles in the presence and absence of orthovanadate reflects a transmembrane movement rather than binding to the membrane surface, the influence of high osmolarity was investigated. […] In the presence of orthovanadate, 1 mol/l of sucrose only slightly influenced the [^3H]ADP association to the vesicles. […] Furthermore, the vanadate-sensitive ADP accumulation in the dense granular fraction of the sucrose gradient could be detected and was inhibited by dipyridamole, MK571 and cGMP (Table 1).
Transport of [^3H]ADP. An ATP-dependent transport of [3H]ADP (1 μmol/l) in the membrane vesicles was measured by rapid filtration, as is described for [^3H]cGMP, with the exception that the vesicles in incubation buffer supplemented with 0.4 mmol/l ATP, 10 mmol/l MgCl2 are incubated in the presence or absence of sodium orthovanadate (1 mmol/l). In order to investigate the effect of the osmolarity of the extra-vesicular medium, the vesicles were preincubated for 45 minutes at 4° C. in a 1 mol/l sucrose-containing buffer or in standard incubation buffer which contained 250 mmol/l of sucrose.
Dense platelet vesicles (100 μg of protein) were incubated with [3H]ADP (1 μmol/l) in the presence of 0.4 mmol/l of ATP or 0.4 mmol/l of ATP+1 mmol/l of orthovanadate for two minutes, and the difference in the vesicle-associated radioactivity was calculated. The compounds listed were added to the incubations with and without orthovanadate in the concentrations indicated. The difference is indicated as the percentage of the control (mean value+standard deviation of 3 determinations). The control value of the vanadate-sensitive [^3H]ADP transport in this experiment was […] of protein^−1 after 2 minutes.

[2] = biological target: T1, MRP4; assay: [3H]ADP transport in crude platelet membrane vesicles; assay type: biochemical; settings: ATP 0.4 mmol/l plus 1 mM orthovanadate versus ATP alone; crude membranes
Procedure: In order to determine whether ADP can be a substrate for MRP4-mediated, ATP-dependent transport, the uptake of [3H]ADP (1 μM) in platelet membrane vesicles (crude membranes) in the presence of 0.4 mmol/l of ATP was measured over a period of 2 minutes. […] If ATP was replaced by 5′-AMP or the non-hydrolyzable ATP analog AMPPNP, which was customarily used in control incubations in order to calculate the ATP-dependent component of the transport, approximately a three to four-fold higher background binding of the [^3H]ADP to the membranes was observed, which increased only slightly with time (not shown). […] In order to show the ATP dependence and simultaneously to ensure identical initial ADP concentrations, the transport was measured in the presence of ATP with or without 1 mM orthovanadate, an inhibitor of ATP hydrolysis. A time-dependent increase in the vesicle-associated radioactivity in the presence of ATP was observed, in spite of the fact that [^3H]ADP was diluted by simultaneous formation of unlabeled ADP. […]
Transport of [^3H]ADP. An ATP-dependent transport of [3H]ADP (1 μmol/l) in the membrane vesicles was measured by rapid filtration, as is described for [^3H]cGMP, with the exception that the vesicles in incubation buffer supplemented with 0.4 mmol/l ATP, 10 mmol/l MgCl2 are incubated in the presence or absence of sodium orthovanadate (1 mmol/l). […]

For `CN(C)C(=O)CCSC(SCCC(=O)O)c1cccc(/C=C/c2ccc3ccc(Cl)cc3n2)c1` (centres unmarked) [MK571], the “[^3H]ADP transport (% of control)” value ([1]; 100 μM substance) was 40.7 ± 3.9 % of control and the “vanadate-sensitive ADP accumulation in the dense granular fraction of the sucrose gradient” value [1] was “inhibited”.

In the case of `Nc1nc2c(ncn2[C@@H]2O[C@@H]3COP(=O)(O)O[C@H]3[C@H]2O)c(=O)[nH]1` [cGMP, cyclic GMP], the “[^3H]ADP transport (% of control)” value ([1]; 100 μM substance) is reported as 28.7 ± 2.3 % of control and the “vanadate-sensitive ADP accumulation in the dense granular fraction of the sucrose gradient” value [1] is reported as “inhibited”.

With `[Na+].[Na+].[Na+].[O]=[V]([O-])([O-])[O-]` [orthovanadate, sodium orthovanadate] the “vesicle-associated radioactivity ([3H]ADP)” value [2] was “significantly reduced”.

For `OCCN(CCO)c1nc(N2CCCCC2)c2nc(N(CCO)CCO)nc(N3CCCCC3)c2n1` [Dipyridamole, dipyridamole], the “[^3H]ADP transport (% of control)” value ([1]; 10 μM substance) was 52.7 ± 5.2 % of control, the “[^3H]ADP transport (% of control)” value ([1]; 100 μM substance) was 8.8 ± 0.4 % of control and the “vanadate-sensitive ADP accumulation in the dense granular fraction of the sucrose gradient” value [1] was “inhibited”.
